This is an account of results in ChEMBL document CHEMBL2021885, “Triphenylbutanamines: kinesin spindle protein inhibitors with in vivo antitumor activity” (J Med Chem, 2012).

Activity calls are given as the source filed them. No cut-off for these calls is given here. Bounds are passed on as bounds.

Series [1] has as its target T1, Kinesin-like protein KIF7 (Homo sapiens) (UniProt Q2M1P5).
T1 sequence (whole entry): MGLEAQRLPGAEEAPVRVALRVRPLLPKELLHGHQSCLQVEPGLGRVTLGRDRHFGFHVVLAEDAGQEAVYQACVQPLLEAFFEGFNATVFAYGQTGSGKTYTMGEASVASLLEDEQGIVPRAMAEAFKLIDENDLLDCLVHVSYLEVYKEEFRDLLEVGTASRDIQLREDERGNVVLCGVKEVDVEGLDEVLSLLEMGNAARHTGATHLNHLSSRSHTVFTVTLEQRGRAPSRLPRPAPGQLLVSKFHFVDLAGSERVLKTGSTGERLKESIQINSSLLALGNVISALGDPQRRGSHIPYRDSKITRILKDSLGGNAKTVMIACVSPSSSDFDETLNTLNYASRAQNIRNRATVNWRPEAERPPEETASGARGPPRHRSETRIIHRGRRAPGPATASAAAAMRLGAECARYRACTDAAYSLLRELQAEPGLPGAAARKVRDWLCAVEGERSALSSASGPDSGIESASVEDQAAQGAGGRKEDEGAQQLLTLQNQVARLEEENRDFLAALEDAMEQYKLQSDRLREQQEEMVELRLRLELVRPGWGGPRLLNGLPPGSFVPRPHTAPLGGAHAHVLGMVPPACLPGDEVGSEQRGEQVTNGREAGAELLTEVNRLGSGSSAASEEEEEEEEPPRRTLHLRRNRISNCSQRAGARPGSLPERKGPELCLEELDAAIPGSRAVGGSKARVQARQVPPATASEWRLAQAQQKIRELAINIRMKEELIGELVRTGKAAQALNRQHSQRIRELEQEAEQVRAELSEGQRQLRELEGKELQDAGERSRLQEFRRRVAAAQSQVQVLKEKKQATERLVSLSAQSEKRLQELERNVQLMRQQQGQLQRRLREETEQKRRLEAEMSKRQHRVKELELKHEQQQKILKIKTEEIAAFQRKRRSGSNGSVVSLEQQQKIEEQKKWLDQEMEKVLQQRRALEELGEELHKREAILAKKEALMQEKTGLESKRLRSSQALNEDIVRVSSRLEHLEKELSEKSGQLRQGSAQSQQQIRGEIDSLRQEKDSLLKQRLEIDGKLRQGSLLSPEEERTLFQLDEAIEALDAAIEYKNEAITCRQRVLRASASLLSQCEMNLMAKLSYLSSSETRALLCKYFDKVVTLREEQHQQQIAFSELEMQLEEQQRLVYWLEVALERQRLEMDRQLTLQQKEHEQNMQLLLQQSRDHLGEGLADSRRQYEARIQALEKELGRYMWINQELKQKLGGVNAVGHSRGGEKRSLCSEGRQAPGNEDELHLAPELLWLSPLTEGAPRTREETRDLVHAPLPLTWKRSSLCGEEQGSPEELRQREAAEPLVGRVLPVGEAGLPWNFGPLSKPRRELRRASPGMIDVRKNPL
As to the kind of experiment: Inhibition of Kif7 ATPase activity.

For series [2], the target named is T2, Kinesin-like protein KIF20A (Homo sapiens) (UniProt O95235).
T2 sequence (whole entry): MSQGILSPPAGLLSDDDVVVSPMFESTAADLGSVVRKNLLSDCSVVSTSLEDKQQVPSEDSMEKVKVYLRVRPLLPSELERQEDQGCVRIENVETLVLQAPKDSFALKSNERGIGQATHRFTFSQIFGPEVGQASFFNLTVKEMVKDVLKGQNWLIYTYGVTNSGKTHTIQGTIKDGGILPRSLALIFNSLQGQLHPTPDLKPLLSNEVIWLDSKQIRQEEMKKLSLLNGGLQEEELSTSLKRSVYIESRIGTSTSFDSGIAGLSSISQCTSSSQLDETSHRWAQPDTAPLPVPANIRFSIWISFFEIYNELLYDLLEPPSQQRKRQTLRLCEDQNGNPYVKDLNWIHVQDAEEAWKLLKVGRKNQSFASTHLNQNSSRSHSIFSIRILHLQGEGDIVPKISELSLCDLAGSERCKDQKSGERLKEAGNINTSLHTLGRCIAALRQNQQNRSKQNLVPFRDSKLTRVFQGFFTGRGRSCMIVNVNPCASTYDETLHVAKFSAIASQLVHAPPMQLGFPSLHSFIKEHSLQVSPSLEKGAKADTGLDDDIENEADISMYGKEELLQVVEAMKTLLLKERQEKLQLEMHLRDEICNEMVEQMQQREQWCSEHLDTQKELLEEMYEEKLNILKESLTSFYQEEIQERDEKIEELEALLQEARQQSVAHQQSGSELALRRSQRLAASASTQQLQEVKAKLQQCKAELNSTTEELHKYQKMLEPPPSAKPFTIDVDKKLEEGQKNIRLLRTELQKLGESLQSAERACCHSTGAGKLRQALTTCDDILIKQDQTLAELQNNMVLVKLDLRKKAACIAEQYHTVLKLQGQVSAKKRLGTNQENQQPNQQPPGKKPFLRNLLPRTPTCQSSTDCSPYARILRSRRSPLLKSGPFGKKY
The series is described as follows: Inhibition of MKLP2 ATPase activity.

In series [3] the target is Centromere-associated protein E (Homo sapiens) (UniProt Q02224). The series is described as follows: Inhibition of CENP-E ATPase activity.
Series [4] in a line: Antiproliferative activity against human hTERT-HME1 cells after 72 hrs by Alamar blue assay. Format: cell-based. (In general: Alamar Blue is a resazurin reagent that responds to reducing activity.)
Series [5] relates to NCI-H1299. As to the kind of experiment: Antiproliferative activity against human NCI-H1299 cells after 72 hrs by Alamar blue assay. It counts as functional. As to conditions: NCI-H1299, 72 h.
Series [6] concerns BXPC-3. The series is described as follows: Antiproliferative activity against human BxPC3 cells after 72 hrs by Alamar blue assay. It counts as functional. Particulars: BXPC-3, 72 h.
A short description of series [7]: Turbidimetric solubility of the compound at pH 2. It counts as physicochemical. As to conditions: buffer.
A short description of series [8]: Turbidimetric solubility of the compound at pH 6. Format: physicochemical. Particulars: buffer.
Series [9] can be described thus: Turbidimetric solubility of the compound at pH 7.4. Format: physicochemical. As to conditions: buffer.
The nature of series [10]: Distribution coefficient, log D of the compound at pH 7.4. Format: physicochemical. Particulars: octanol/water, read-out: logD.
Series [11] can be described thus: Antitumor activity against human LXFS 538 cells xenografted in nu/nu nude Charles river mouse assessed as tumor volume doubling time at 20 mg/kg on days 0, 2 and 4 and 15 mg/kg on days 17, 19, 24 measured after 28 days (reference value: 8.8 days). It counts as functional. In general terms: Xenograft models place foreign cells or tissue in a host animal.

Sequence of Centromere-associated protein E (Homo sapiens) (Q02224 whole entry): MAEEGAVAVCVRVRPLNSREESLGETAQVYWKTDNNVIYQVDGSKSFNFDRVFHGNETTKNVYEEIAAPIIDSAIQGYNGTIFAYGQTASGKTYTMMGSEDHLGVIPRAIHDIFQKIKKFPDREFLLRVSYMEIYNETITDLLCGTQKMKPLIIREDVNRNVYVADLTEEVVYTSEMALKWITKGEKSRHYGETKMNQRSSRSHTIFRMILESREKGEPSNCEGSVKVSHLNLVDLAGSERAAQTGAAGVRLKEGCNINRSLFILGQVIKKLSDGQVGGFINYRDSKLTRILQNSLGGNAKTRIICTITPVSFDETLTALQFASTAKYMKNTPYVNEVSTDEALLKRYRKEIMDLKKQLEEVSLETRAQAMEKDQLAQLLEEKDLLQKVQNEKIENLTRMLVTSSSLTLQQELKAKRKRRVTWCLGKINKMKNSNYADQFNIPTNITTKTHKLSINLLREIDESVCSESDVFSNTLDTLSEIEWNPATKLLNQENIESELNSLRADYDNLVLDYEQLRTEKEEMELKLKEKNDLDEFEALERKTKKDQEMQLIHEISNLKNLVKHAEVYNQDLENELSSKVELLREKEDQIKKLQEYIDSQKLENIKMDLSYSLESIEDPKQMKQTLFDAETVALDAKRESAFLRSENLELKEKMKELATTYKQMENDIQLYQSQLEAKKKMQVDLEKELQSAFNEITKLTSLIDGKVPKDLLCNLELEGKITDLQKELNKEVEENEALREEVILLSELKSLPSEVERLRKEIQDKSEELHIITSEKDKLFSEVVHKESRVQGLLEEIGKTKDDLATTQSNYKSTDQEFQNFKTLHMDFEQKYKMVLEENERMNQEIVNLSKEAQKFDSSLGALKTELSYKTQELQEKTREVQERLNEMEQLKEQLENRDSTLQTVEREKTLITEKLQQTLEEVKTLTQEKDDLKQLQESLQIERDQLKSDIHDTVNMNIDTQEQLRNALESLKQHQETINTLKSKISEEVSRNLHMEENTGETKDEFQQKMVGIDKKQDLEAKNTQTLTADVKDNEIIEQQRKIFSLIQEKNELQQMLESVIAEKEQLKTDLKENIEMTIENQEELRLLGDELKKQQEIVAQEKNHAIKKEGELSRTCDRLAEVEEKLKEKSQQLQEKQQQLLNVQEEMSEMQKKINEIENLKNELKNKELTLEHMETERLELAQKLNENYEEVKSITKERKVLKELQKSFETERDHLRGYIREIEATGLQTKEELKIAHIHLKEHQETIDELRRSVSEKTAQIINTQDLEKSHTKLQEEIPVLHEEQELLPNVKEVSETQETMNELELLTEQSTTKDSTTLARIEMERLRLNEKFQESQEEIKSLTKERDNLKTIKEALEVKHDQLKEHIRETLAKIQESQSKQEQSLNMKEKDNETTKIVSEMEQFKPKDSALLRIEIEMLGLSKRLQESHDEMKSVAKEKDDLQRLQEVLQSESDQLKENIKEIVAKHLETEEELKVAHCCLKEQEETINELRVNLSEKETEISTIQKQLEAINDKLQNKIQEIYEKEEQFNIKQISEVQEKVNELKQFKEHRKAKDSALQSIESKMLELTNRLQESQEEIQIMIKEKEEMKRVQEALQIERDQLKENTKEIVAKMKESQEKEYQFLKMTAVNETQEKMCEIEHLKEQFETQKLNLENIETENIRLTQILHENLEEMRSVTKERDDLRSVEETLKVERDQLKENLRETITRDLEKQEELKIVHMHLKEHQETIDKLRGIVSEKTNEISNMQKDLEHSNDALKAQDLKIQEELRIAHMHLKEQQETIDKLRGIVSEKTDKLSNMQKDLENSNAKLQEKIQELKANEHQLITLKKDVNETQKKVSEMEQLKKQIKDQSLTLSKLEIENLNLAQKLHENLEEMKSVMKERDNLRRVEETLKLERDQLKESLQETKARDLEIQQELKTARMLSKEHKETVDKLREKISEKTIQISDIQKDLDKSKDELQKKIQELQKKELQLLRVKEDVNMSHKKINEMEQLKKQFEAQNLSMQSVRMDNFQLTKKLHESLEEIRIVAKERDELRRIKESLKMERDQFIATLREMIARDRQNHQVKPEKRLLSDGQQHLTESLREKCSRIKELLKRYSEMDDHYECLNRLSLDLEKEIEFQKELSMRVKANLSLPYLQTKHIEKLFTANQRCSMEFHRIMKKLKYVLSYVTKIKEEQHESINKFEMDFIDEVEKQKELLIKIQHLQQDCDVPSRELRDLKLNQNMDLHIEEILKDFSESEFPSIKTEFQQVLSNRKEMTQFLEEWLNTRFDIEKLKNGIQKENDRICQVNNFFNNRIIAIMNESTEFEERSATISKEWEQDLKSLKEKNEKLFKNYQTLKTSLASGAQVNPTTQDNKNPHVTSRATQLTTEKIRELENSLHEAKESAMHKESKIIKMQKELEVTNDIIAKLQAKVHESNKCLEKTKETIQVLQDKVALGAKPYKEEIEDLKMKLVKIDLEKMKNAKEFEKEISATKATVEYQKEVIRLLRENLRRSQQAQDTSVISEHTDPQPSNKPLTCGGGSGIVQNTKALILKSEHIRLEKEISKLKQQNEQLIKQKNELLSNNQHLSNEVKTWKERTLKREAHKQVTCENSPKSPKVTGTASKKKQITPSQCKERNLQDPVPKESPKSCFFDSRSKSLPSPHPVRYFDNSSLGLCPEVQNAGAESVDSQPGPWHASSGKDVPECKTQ

`Cc1cccc(C(CCC(N)C(=O)O)(c2ccccc2)c2ccccc2)c1` (racemic): the inhibition entry in series [1], in [2] and in series [3] was “inactive” each time. The GI50 (usually the concentration giving 50% growth inhibition) at 72 h in [4] was found to be 38 nM. The results for the GI50 in [5] and in series [6] were 137 nM and 144 nM, respectively. Besides, the kinetic solubility in [7], in series [8] and in series [9] was greater than 100 µM in each case. Further, the logD (usually lipophilicity at a set pH, counting ionised and neutral species) in series [10] is 2.45. In addition, in series [11], the Time came out at 28.7 days.
